Measured values as given in publication PMC12615863, “Improving GRPR-targeting peptides for radiotheranostics application: insights from chelator modifications and α-methyl-L tryptophan substitution” (EJNMMI Radiopharmacy and Chemistry, 2025).
Like-named read-outs stand apart in the source and are kept apart here.

Assays:
PC-3 cells = assay: In vitro GRPR specificity assay (uptake with or without NOTA-PEG2-RM26 block); type: cell-based, human
Experimental: After discarding the medium, the cells were washed with cold (4 °C) phosphate-buffered saline containing 1% w/v bovine serum albumin (PBS/BSA). The radiopeptides (Cf = 1 nM in 1 mL PBS/BSA) were added to all wells. A subset of wells was also treated with an excess of unlabeled GRPR-binding peptide NOTA-PEG2-RM26 (Bjäreback et al. [2025]) (Cf = 1 µM in 1 mL PBS/BSA) to block GRPR. After incubation for 1 h at 37 °C, the supernatant was removed, and the cells were washed and then collected by treating them with 1 M NaOH. The activity of the collected samples was measured with the gamma counter. This assay was performed in triplicate for each radiopeptide.

[1] = Biodistribution in mice bearing PC-3 xenografts; type: in vivo, Balb/c nu/nu mice; settings: mouse, total radioactivity, PC-3 xenografted Balb/c nu/nu mice, iv 100 pmol, mean ± SD; for tissue uptake at 2 h / tissue uptake at 4 h / tissue uptake at 24 h: Balb/c nu/nu, iv; for tissue uptake at 4 h / tissue uptake dose at 4 h: 4 h pi; for tissue uptake at 24 h / tissue uptake dose at 24 h: 24 h pi
Experimental: (§1) Each mouse was xenografted with a subcutaneous injection of 8 × 10⁶ PC-3 cells in the right hind leg. After approximately 4 weeks, the animals were injected into the tail vein with 100 µL of radiopeptide (100 pmol—110–130 kBq, diluted in PBS/BSA). Four animals were used for each time point per peptide. […] At the determined time points, the mice were euthanized, organs were collected and weighed, and their activity content was measured in the gamma counter. Results were presented as the percentage of injected activity per gram (%IA/g) for the collected organs, and the percentage of injected activity (%IA) for the gastrointestinal tract (GI) and the carcass. […] Statistical analysis was performed with GraphPad Prism 10 using two way ANOVA with Tuckey’s or Šidák’a post hoc analysis.

PC-3 xenografts = assay: Biodistribution in mice bearing PC-3 xenografts; type: in vivo, Balb/c nu/nu mice; settings: PC-3 xenografted mice, between 4 and 24 h pi
Experimental: as §1

[2] = In vivo stability: intact radiopeptide in peripheral mouse blood 5 min pi, radio-HPLC; settings: for Percentage of intact peptide, Entresto: blood 5 min pi
Experimental: Two animals per peptide were injected intravenously with a bolus of test radioligand (50 MBq, 2 nmol of peptide in 100 μL PBS/EtOH v/v 9:1) – Control group. To inhibit NEP, additional groups of two mice per compound were orally treated with 12 mg Entresto® (Novartis, Basel, Switzerland) 30 min before receiving the intravenous injection—Entresto group. Five minutes post-injection (pi), the animals were euthanized, and the blood was collected and immediately mixed with EDTA (0.1 mM, 40 μL) in Eppendorf tubes on ice. The mixture was spun at 2000 g for 10 min at 4 °C in an Eppendorf Centrifuge 5430 R (Eppendorf AG, Hamburg, Germany), and the plasma was collected and diluted with an equal volume of MeCN (4 °C). After a second centrifugation at 15,000 g and 4 °C for 10 min, the supernatant was collected in an Eppendorf tube and concentrated to 50–100 μL at 50 °C using a mild stream of N2. PBS was added to the samples to reach a final volume of 200 μL, and the solutions were filtered through a syringe filter (0.22 μm, 13 mm, VWR International, Radnor, USA). The filtered solution was analyzed by reversed-phase radio-HPLC to determine the percentage of intact peptides. The peak corresponding to the intact peptide was identified by injection of an aliquot of the labeling solution.

[3] = blood, 100 pmol, n = 4, read-out: Blood activity uptake
[4] = bone, 100 pmol, n = 4, read-out: Bone activity uptake
[5] = kidneys, 100 pmol, n = 4, read-out: Kidneys activity uptake
[6] = liver, 100 pmol, n = 4, read-out: Liver activity uptake
[7] = lungs, 100 pmol, n = 4, read-out: Lungs activity uptake
[8] = muscle, 100 pmol, n = 4, read-out: Muscle activity uptake
[9] = pancreas, 100 pmol, n = 4, read-out: Pancreas activity uptake
[10] = small intestine, 100 pmol, n = 4, read-out: Small Int. activity uptake
[11] = spleen, 100 pmol, n = 4, read-out: Spleen activity uptake
[12] = stomach, 100 pmol, n = 4, read-out: Stomach activity uptake
[13] = tumor, 100 pmol, n = 4, read-out: Tumor activity uptake
[14] = carcass, n = 4, read-out: Body activity uptake
[15] = gastrointestinal tract with content, n = 4, read-out: GI activity uptake

tissue uptake at 2 h ([1]; blood, 100 pmol, 2 h pi, n = 4, read-out: Blood activity uptake): 0.22 ± 0.04 %ID/g
tissue uptake at 4 h [1, 3]: 0.09 ± 0.02 %ID/g
tissue uptake at 24 h [1, 3]: 0.02 ± 0.01 %ID/g
tissue uptake at 2 h ([1]; blood, 2 h pi blocked (co-injected 100-fold molar excess NOTA-PEG2-RM26), n = 3, read-out: Blood activity uptake): 0.13 ± 0.06 %ID/g
tissue uptake at 2 h ([1]; bone, 100 pmol, 2 h pi, n = 4, read-out: Bone activity uptake): 0.16 ± 0.03 %ID/g
tissue uptake at 4 h [1, 4]: 0.13 ± 0.04 %ID/g
tissue uptake at 24 h [1, 4]: 0.08 ± 0.03 %ID/g
tissue uptake at 2 h ([1]; bone, 2 h pi blocked (co-injected 100-fold molar excess NOTA-PEG2-RM26), n = 3, read-out: Bone activity uptake): 0.11 ± 0.03 %ID/g
tissue uptake at 2 h ([1]; kidneys, 100 pmol, 2 h pi, n = 4, read-out: Kidneys activity uptake): 7.4 ± 1 %ID/g
tissue uptake at 4 h [1, 5]: 5.9 ± 0.8 %ID/g
tissue uptake at 24 h [1, 5]: 4.3 ± 0.8 %ID/g
tissue uptake at 2 h ([1]; kidneys, 2 h pi blocked (co-injected 100-fold molar excess NOTA-PEG2-RM26), n = 3, read-out: Kidneys activity uptake): 5.4 ± 0.7 %ID/g
tissue uptake at 2 h ([1]; liver, 100 pmol, 2 h pi, n = 4, read-out: Liver activity uptake): < 0.5 %ID/g
tissue uptake at 4 h [1, 6]: 0.42 ± 0.03 %ID/g
tissue uptake at 24 h [1, 6]: 0.24 ± 0.02 %ID/g
tissue uptake at 2 h ([1]; liver, 2 h pi blocked (co-injected 100-fold molar excess NOTA-PEG2-RM26), n = 3, read-out: Liver activity uptake): 0.38 ± 0.05 %ID/g
tissue uptake at 2 h ([1]; lungs, 100 pmol, 2 h pi, n = 4, read-out: Lungs activity uptake): 0.6 ± 0.3 %ID/g
tissue uptake at 4 h [1, 7]: 0.24 ± 0.08 %ID/g
tissue uptake at 24 h [1, 7]: 0.09 ± 0.01 %ID/g
tissue uptake at 2 h ([1]; lungs, 2 h pi blocked (co-injected 100-fold molar excess NOTA-PEG2-RM26), n = 3, read-out: Lungs activity uptake): 0.27 ± 0.03 %ID/g
tissue uptake at 2 h ([1]; muscle, 100 pmol, 2 h pi, n = 4, read-out: Muscle activity uptake): 0.09 ± 0.02 %ID/g
tissue uptake at 4 h [1, 8]: 0.1 ± 0.1 %ID/g
tissue uptake at 24 h [1, 8]: 0.02 ± 0.01 %ID/g
tissue uptake at 2 h ([1]; muscle, 2 h pi blocked (co-injected 100-fold molar excess NOTA-PEG2-RM26), n = 3, read-out: Muscle activity uptake): 0.07 ± 0.05 %ID/g
tissue uptake at 2 h ([1]; pancreas, 100 pmol, 2 h pi, n = 4, read-out: Pancreas activity uptake): 11.9 ± 2.1 %ID/g
tissue uptake at 4 h [1, 9]: 4.7 ± 0.4 %ID/g
tissue uptake at 24 h [1, 9]: 0.5 ± 0.2 %ID/g
tissue uptake at 2 h ([1]; small intestine, 100 pmol, 2 h pi, n = 4, read-out: Small Int. activity uptake): 2.2 ± 0.6 %ID/g
tissue uptake at 4 h [1, 10]: 1 ± 0.3 %ID/g
tissue uptake at 24 h [1, 10]: 0.11 ± 0.03 %ID/g
tissue uptake at 2 h ([1]; small intestine, 2 h pi blocked (co-injected 100-fold molar excess NOTA-PEG2-RM26), n = 3, read-out: Small Int. activity uptake): 0.7 ± 0.3 %ID/g
tissue uptake at 2 h ([1]; spleen, 100 pmol, 2 h pi, n = 4, read-out: Spleen activity uptake): 0.4 ± 0.2 %ID/g
tissue uptake at 4 h [1, 11]: 0.25 ± 0.07 %ID/g
tissue uptake at 24 h [1, 11]: 0.16 ± 0.06 %ID/g
tissue uptake at 2 h ([1]; spleen, 2 h pi blocked (co-injected 100-fold molar excess NOTA-PEG2-RM26), n = 3, read-out: Spleen activity uptake): 0.13 ± 0.02 %ID/g
tissue uptake at 2 h ([1]; stomach, 100 pmol, 2 h pi, n = 4, read-out: Stomach activity uptake): 2.5 ± 0.2 %ID/g
tissue uptake at 4 h [1, 12]: 1.9 ± 0.3 %ID/g
tissue uptake at 24 h [1, 12]: 0.16 ± 0.05 %ID/g
tissue uptake at 2 h ([1]; stomach, 2 h pi blocked (co-injected 100-fold molar excess NOTA-PEG2-RM26), n = 3, read-out: Stomach activity uptake): 0.6 ± 0.1 %ID/g
tissue uptake at 2 h ([1]; tumor, 100 pmol, 2 h pi, n = 4, read-out: Tumor activity uptake): 23.8 ± 2.5 %ID/g
tissue uptake at 4 h [1, 13]: 18.8 ± 0.7 %ID/g
tissue uptake at 24 h [1, 13]: 15.3 ± 2.7 %ID/g
tissue uptake at 2 h ([1]; tumor, 2 h pi blocked (co-injected 100-fold molar excess NOTA-PEG2-RM26), n = 3, read-out: Tumor activity uptake): 3.4 ± 0.3 %ID/g
tissue uptake dose at 2 h ([1]; carcass, 2 h pi, n = 4, read-out: Body activity uptake): 2.7 ± 0.8 %ID
tissue uptake dose at 4 h [1, 14]: 2.2 ± 0.4 %ID
tissue uptake dose at 24 h [1, 14]: 1.1 ± 0.7 %ID
tissue uptake dose at 2 h ([1]; gastrointestinal tract with content, 2 h pi, n = 4, read-out: GI activity uptake): 2 ± 0.2 %ID
tissue uptake dose at 4 h [1, 15]: 0.4 ± 0.3 %ID
tissue uptake dose at 24 h [1, 15]: 0.16 ± 0.03 %ID
tumor retention of activity (PC-3 xenografts): around 80%
Percentage of intact peptide, Entresto ([2]; NMRI mice, 12 mg Entresto orally 30 min before injection, recorded value n1): 90% [90% - 90%]
Percentage of intact peptide, Entresto ([2]; NMRI mice, 12 mg Entresto orally 30 min before injection, recorded value n2): 90% [90% - 90%]
Percentage of intact peptide, Entresto ([2]; healthy NMRI mice, 12 mg Entresto orally 30 min before iv injection (NEP inhibition), radio-HPLC, mean of n = 2): 90% [90% - 90%]
Percentage of intact peptide, Control ([2]; healthy NMRI mice, iv 50 MBq, 2 nmol, peripheral blood 5 min pi, radio-HPLC, mean of n = 2): 91% [88% - 94%]
Structure (SMILES): CC(C)C[C@H](NC(=O)C[C@H](O)[C@H](CC(C)C)NC(=O)[C@H](Cc1c[nH]cn1)NC(=O)CN(C)C(=O)[C@@H](NC(=O)[C@H](C)NC(=O)[C@](C)(Cc1c[nH]c2ccccc12)NC(=O)[C@H](CCC(N)=O)NC(=O)[C@@H](Cc1ccccc1)NC(=O)CN1CCC(NC(=O)COCCOCCNC(=O)CN2CCN(CC(=O)O)CCN(CC(=O)O)CCN(CC(=O)O)CC2)CC1)C(C)C)C(N)=O [[^177Lu]Lu-PKB3, metal not drawn]
in vitro binding specificity (PC-3 cells; 1 nM radiopeptide, 1 h at 37 °C, block with 1 µM NOTA-PEG2-RM26, n = 3): GRPR-mediated activity uptake
total cellular activity uptake (rank among the three radiopeptides) (PC-3 cells; 1 nM, 37 °C, n = 3): highest
